Read-outs that look alike come from different tables or passages of the source.
Key:
[1] = system: P. falciparum female gametocytes; assay: P. falciparum female gametogenesis assay (Pf FGAA); settings: 1: YES; 0: NO
[2] = system: P. falciparum female gametocytes; design: method as in Miguel-Blanco et al 2017; settings: TCAMS screen comparison; ref Miguel-Blanco et al 2017; read-out: Pf FGAA IC50; cited from earlier work
[3] = system: P. falciparum late stage (stages IV-V) gametocytes; assay: P. falciparum late stage gametocyte ATP depletion assay (Pf GC-ATP); settings: 1: YES; 0: NO
HepG2 cells [4] = settings: cited from earlier work
HepG2 cells [5] = assay: HepG2 cytotoxicity assay; settings: HepG2 cytotoxicity unified across the three screens
In short: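 HepG2 cells, 2,500 per well in MEM with 10% FBS and 1% NEAA, exposed to compounds for 48 h at 37°C, 5% CO2. Viability read by fluorescence; percent inhibition relative to 50 μM doxorubicin and DMSO controls.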

[6] = system: P. falciparum late stage (stages IV-V) gametocytes; design: method as in Almela et al 2016; settings: TCAMS screen comparison; ref Almela et al 2016; read-out: Pf GCT ATP IC50; cited from earlier work
[7] = value reported with the Pf FGAA screen, ref Miguel-Blanco et al 2017
[8] = value reported with the Pf GCT ATP screen, ref Almela et al 2016

SMILES	Is compound selective in assay? Pf FGAA active? [1]	IC50 [2] [nM]	Is compound selective in assay? Pf GC-ATP active? [3]	HepG2 cytoxicity (HepG2 cells [4]; [7]) [µM]	HepG2 cytoxicity (HepG2 cells [4]; [8]) [µM]	Unified cytotox (HepG2 cells [5]) [µM]	IC50 [6] [nM]
COc1cc2nc(N3CCC(CNCc4ccc(-c5ccc(C(F)(F)F)cc5)cc4)CC3)nc(N)c2cc1OC [TCMDC-138757]	1 (1: YES)	100	1 (1: YES)	1.43	<1.56	1.43	17.7
COc1c(C2CCN(CCN3CCC(CNC(=O)c4ccc(-c5ccc(C#N)cc5)cc4)CC3)CC2)ccc2c1CCCC2 [TCMDC-138859]	0 (0: NO)	1460	0 (0: NO)	3.43	3.3	3.36	1170
Cl.Clc1ccc(OCCC2CCN(CCCCCCCN3CCC(CCOc4ccc(Cl)c(Cl)c4)CC3)CC2)cc1Cl [TCMDC-138967]	0 (0: NO)	520	0 (0: NO)	1.64	2.6	2.12	470
C=C[C@H]1CN(CCCCCCC)CC[C@H]1CCNc1ccnc2ccc(OC)cc12 [TCMDC-139204]	0 (0: NO)	1800	0 (0: NO)	2.24	3.4	2.82	1080
COc1ccc(CNC(=O)c2cnc3c(O)cccc3c2Nc2cccc(NC(=O)c3ccc(Cl)c(Cl)c3)c2)cc1.O=C(O)C(F)(F)F [TCMDC-139607]	0 (0: NO)	1600	0 (0: NO)	–	<1.56	1.56	680
CC(Cc1ccc(CNC(=O)c2ccc(CC(C)NCCc3cccc(Cl)c3)cc2)cc1)NCCc1cccc(Cl)c1 (stereo not shown) [TCMDC-139659]	0 (0: NO)	860	0 (0: NO)	2.26	3.15	2.71	570
CC(=O)N(Cc1ccc(CC(C)NCCc2cccc(Cl)c2)cc1)Cc1ccc(CC(C)NCCc2cccc(Cl)c2)cc1 (stereo not shown) [TCMDC-139678]	0 (0: NO)	810	0 (0: NO)	2.85	2.3	2.58	1400
c1cc(Nc2nc(-c3ccc(-c4csc(Nc5ccncc5)n4)cc3)cs2)ccn1 [TCMDC-139725]	1 (1: YES)	30	1 (1: YES)	2.26	17.3	9.78	260
CC(Cc1ccc(C(=O)Nc2ccc(CC(C)NCCc3cccc(Cl)c3)cc2)cc1)NCCc1ccc(C(F)(F)F)cc1 (stereo not shown) [TCMDC-139790]	0 (0: NO)	1010	1 (1: YES)	4.13	3.3	3.71	310
CC(CCCCCC(=O)Nc1ccc(CC(C)NCCc2cccc(Cl)c2)cc1)NCCc1cccc(Cl)c1 (stereo not shown) [TCMDC-139800]	0 (0: NO)	1390	0 (0: NO)	2.55	3.2	2.87	430
CCOc1ccccc1CCNC(C)Cc1ccc(C(=O)Nc2ccc(CC(C)NCCc3cccc(Cl)c3)cc2)cc1 (stereo not shown) [TCMDC-139805]	0 (0: NO)	1390	0 (0: NO)	3.24	3.5	3.37	610

— paper PMC6753678, “Fueling Open Innovation for Malaria Transmission-Blocking Drugs: Hundreds of Molecules Targeting Early Parasite Mosquito Stages” (Frontiers in Microbiology, 2019)
